According to US20230081426A1, “COMPOUNDS AND METHODS FOR KRAS MODULATION AND INDICATIONS THEREFOR” (Plexxikon Inc., priority 2020, published 2023):

Columns and labels:
[1] = biological target: T1, G12D-mutant human KRAS (amino acid residues 1-188) (Homo sapiens, UniProt P01116, G12D); assay: KRAS Binding Disruption Assay (AlphaScreen; biotinylated KRpep-2d analogue or RAF1-RBD), G12D; settings: KRAS G12D; geometric mean; read-out: KRAS GMean IC50 (uM) MUTATION: G12D
T1 construct: G12D or G12C-mutant human KRAS (amino acid residues 1-188) with FLAG tag; made in house; host or cells: E. coli
Summary of the method: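 Mutant KRAS (5-20 nM) incubated 1 h at 25° C with test compound and 5-20 nM biotinylated KRpep-2d analogue or RAF1-RBD in 20 mM HEPES pH 7.5, 100 mM NaCl, 5 mM MgCl2, 0.01% Tween-20, 0.01% BSA.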

[2] = biological target: T2, G12V-mutant human KRAS (amino acid residues 1-188) (Homo sapiens, UniProt P01116, G12V); assay: KRAS Binding Competition Assay (AlphaScreen; biotinylated KRpep-2d analogue), G12V; settings: geometric mean, read-out: KRAS GMean IC50 (uM) MUTATION: G12V
T2 construct: G12V-mutant human KRAS (amino acid residues 1-188) with FLAG tag was purified from E. coli; made in house; host or cells: E. coli

Row | SMILES | IC50 [1] | IC50 [2]
1 | CN1CCc2c(cccc2Oc2nc(N3C[C@H]4CC[C@@H](C3)N4)c3cc(Cl)c(-c4c(O)cccc4F)c(F)c3n2)C1 [P-0333, 2-(4-((1R,5S)-3,8-diazabicyclo[3.2.1]octan-3-yl)-6-chloro-8-fluoro-2-((2-methyl-1,2,3,4-tetrahydroisoquinolin-5-yl)oxy)quinazolin-7-yl)-3-fluorophenol] | 0.0001 to 10 µM | 10 to 100 µM
2 | CN1CCc2c(cccc2Oc2nc(N3C[C@H]4CC[C@@H](C3)N4)c3ccc(-c4c(O)cccc4F)c(F)c3n2)C1 [P-0334, 2-(4-((1R,5S)-3,8-diazabicyclo[3.2.1]octan-3-yl)-8-fluoro-2-((2-methyl-1,2,3,4-tetrahydroisoquinolin-5-yl)oxy)quinazolin-7-yl)-3-fluorophenol] | 10 to 100 µM | 10 to 100 µM
3 | COc1cccc(F)c1-c1c(Cl)cc2c(N3C[C@H]4CC[C@@H](C3)N4)nc(Oc3cccc4c3CN(C)CC4)nc2c1F [P-0335, 4-((1R,5S)-3,8-diazabicyclo[3.2.1]octan-3-yl)-6-chloro-8-fluoro-7-(2-fluoro-6-methoxyphenyl)-2-((2-methyl-1,2,3,4-tetrahydroisoquinolin-8-yl)oxy)quinazoline] | 10 to 100 µM | 10 to 100 µM
4 | CN1CCC[C@H]1COc1nc(N2[C@@H]3CC[C@H]2CNC3)c2ccc(-c3cc(O)cc4ccccc34)cc2n1 [P-0336, 4-(4-((1R,5S)-3,8-diazabicyclo[3.2.1]octan-8-yl)-2-(((S)-1-methylpyrrolidin-2-yl)methoxy)quinazolin-7-yl)naphthalen-2-ol] | 0.0001 to 10 µM | 10 to 100 µM
5 | CN1CCC[C@H]1COc1nc(N2C[C@H]3CC[C@@H](C2)N3)c2ccc(-c3cccc4ccccc34)cc2n1 [P-0337, 4-((1R,5S)-3,8-diazabicyclo[3.2.1]octan-3-yl)-2-(((S)-1-methylpyrrolidin-2-yl)methoxy)-7-(naphthalen-1-yl)quinazoline] | 0.0001 to 10 µM | 100 to 1000 µM
6 | CN1CCC[C@H]1COc1nc(N2C[C@H]3CC[C@@H](C2)N3)c2ccc(-c3c(O)ccc4ccccc34)cc2n1 [P-0338, 1-(4-((1R,5S)-3,8-diazabicyclo[3.2.1]octan-3-yl)-2-(((S)-1-methylpyrrolidin-2-yl)methoxy)quinazolin-7-yl)naphthalen-2-ol] | 0.0001 to 10 µM | 10 to 100 µM
7 | CN1CCC[C@H]1COc1nc(N2C[C@H]3CC[C@@H](C2)N3)c2ccc(-c3cc([N+](=O)[O-])cc4ccccc34)cc2n1 [P-0339, 4-((1R,5S)-3,8-diazabicyclo[3.2.1]octan-3-yl)-2-(((S)-1-methylpyrrolidin-2-yl)methoxy)-7-(3-nitronaphthalen-1-yl)quinazoline] | 10 to 100 µM | 10 to 100 µM
8 | CN1CCC[C@H]1COc1nc(N2C[C@H]3CC[C@@H](C2)N3)c2ccc(-c3cc(N)cc4ccccc34)cc2n1 [P-0340, 4-(4-((1R,5S)-3,8-diazabicyclo[3.2.1]octan-3-yl)-2-(((S)-1-methylpyrrolidin-2-yl)methoxy)quinazolin-7-yl)naphthalen-2-amine] | 0.0001 to 10 µM | 10 to 100 µM
9 | Cc1c(N)cccc1-c1ccc2c(N3C[C@H]4CC[C@@H](C3)N4)nc(OC[C@@H]3CCCN3C)nc2c1 [P-0341, 3-(4-((1R,5S)-3,8-diazabicyclo[3.2.1]octan-3-yl)-2-(((S)-1-methylpyrrolidin-2-yl)methoxy)quinazolin-7-yl)-2-methylaniline] | 100 to 1000 µM | 10 to 100 µM
10 | CN1CCC[C@H]1COc1nc(N2C[C@H]3CC[C@@H](C2)N3)c2ccc(-c3c(O)cccc3Cl)cc2n1 [P-0342, 2-(4-((1R,5S)-3,8-diazabicyclo[3.2.1]octan-3-yl)-2-(((S)-1-methylpyrrolidin-2-yl)methoxy)quinazolin-7-yl)-3-chlorophenol] | 0.0001 to 10 µM | 10 to 100 µM
11 | Cc1cccc(N)c1-c1ccc2c(N3C[C@H]4CC[C@@H](C3)N4)nc(OC[C@@H]3CCCN3C)nc2c1 [P-0343, 2-(4-((1R,5S)-3,8-diazabicyclo[3.2.1]octan-3-yl)-2-(((S)-1-methylpyrrolidin-2-yl)methoxy)quinazolin-7-yl)-3-methylaniline] | 10 to 100 µM | 10 to 100 µM
12 | CN1CCC[C@H]1COc1nc(N2C[C@H]3CC[C@@H](C2)N3)c2cc(F)c(N3CC(O)Cc4ccccc43)c(F)c2n1 (stereo partly drawn) [P-0344, 1-(4-((1R,5S)-3,8-diazabicyclo[3.2.1]octan-3-yl)-6,8-difluoro-2-(((S)-1-methylpyrrolidin-2-yl)methoxy)quinazolin-7-yl)-1,2,3,4-tetrahydroquinolin-3-ol] | 0.0001 to 10 µM | 100 to 1000 µM
13 | CN1CCC[C@H]1COc1nc(N2[C@@H]3CC[C@H]2CN(CC(=O)C2CCNCC2)C3)c2ccc(-c3cc(O)cc4ccccc34)cc2n1 [P-0345, 2-((1R,5S)-8-(7-(3-hydroxynaphthalen-1-yl)-2-(((S)-1-methylpyrrolidin-2-yl)methoxy)quinazolin-4-yl)-3,8-diazabicyclo[3.2.1]octan-3-yl)-1-(piperidin-4-yl)ethan-1-one] | 0.0001 to 10 µM | 10 to 100 µM
14 | CN1CCC[C@H]1COc1nc(N2[C@@H]3CC[C@H]2CN(CC(O)CN2CCOCC2)C3)c2ccc(-c3cc(O)cc4ccccc34)cc2n1 (stereo partly drawn) [P-0346, 4-(4-((1R,5S)-3-(2-hydroxy-3-morpholinopropyl)-3,8-diazabicyclo[3.2.1]octan-8-yl)-2-(((S)-1-methylpyrrolidin-2-yl)methoxy)quinazolin-7-yl)naphthalen-2-ol] | 0.0001 to 10 µM | 10 to 100 µM
15 | CN1CCC[C@H]1COc1nc(N2[C@@H]3CC[C@H]2CN(C(=O)Nc2cnc[nH]2)C3)c2ccc(-c3cc(O)cc4ccccc34)cc2n1 [P-0347, (1R,5S)-8-(7-(3-hydroxynaphthalen-1-yl)-2-(((S)-1-methylpyrrolidin-2-yl)methoxy)quinazolin-4-yl)-N-(1H-imidazol-5-yl)-3,8-diazabicyclo[3.2.1]octane-3-carboxamide] | 0.0001 to 10 µM | 0.0001 to 10 µM
16 | CN1CCC[C@H]1COc1nc(N2[C@@H]3CC[C@H]2CN(CC2(O)CCNCC2)C3)c2ccc(-c3cc(O)cc4ccccc34)cc2n1 [P-0348, 4-(((1R,5S)-8-(7-(3-hydroxynaphthalen-1-yl)-2-(((S)-1-methylpyrrolidin-2-yl)methoxy)quinazolin-4-yl)-3,8-diazabicyclo[3.2.1]octan-3-yl)methyl)piperidin-4-ol] | 10 to 100 µM | 10 to 100 µM
17 | CN1CCC[C@H]1COc1nc(N2[C@@H]3CC[C@H]2CN(C(=N)NC#N)C3)c2ccc(-c3cc(O)cc4ccccc34)cc2n1 [P-0349, (1R,5S)-N-cyano-8-(7-(3-hydroxynaphthalen-1-yl)-2-(((S)-1-methylpyrrolidin-2-yl)methoxy)quinazolin-4-yl)-3,8-diazabicyclo[3.2.1]octane-3-carboximidamide] | 10 to 100 µM | 0.0001 to 10 µM
18 | CN1CCC[C@H]1COc1nc(N2[C@@H]3CC[C@H]2CN(C(=O)c2c[nH]cn2)C3)c2ccc(-c3cc(O)cc4ccccc34)cc2n1 [P-0350, ((1R,5S)-8-(7-(3-hydroxynaphthalen-1-yl)-2-(((S)-1-methylpyrrolidin-2-yl)methoxy)quinazolin-4-yl)-3,8-diazabicyclo[3.2.1]octan-3-yl)(1H-imidazol-4-yl)methanone] | 10 to 100 µM | 0.0001 to 10 µM
